The values that follow come from patent US10793522B2, “Sulfonamides as inhibitors of the uptake of extracellular citrate” (Boehringer Ingelheim International GmbH, priority 2016, dated 2020).

The target of this assay is hSLC13A5 (Homo sapiens, UniProt Q86YT5). In words: HepG2/14C-citrate uptake assay. The note with it: HepG2 cells endogenously expressing hSLC13A5; Cytostar-T; 14C-citrate ~1.8 μM; incubation over night. Type of assay: cell-based. Also on record: HepG2 cells endogenously express hSLC13A5 transporter which is responsible for the uptake of citrate into these cells; endogenous in cells; host or cells: HepG2. An excerpt: (4) HepG2/^14C-Citrate Uptake Assay
Sequence of hSLC13A5 (Q86YT5 whole entry): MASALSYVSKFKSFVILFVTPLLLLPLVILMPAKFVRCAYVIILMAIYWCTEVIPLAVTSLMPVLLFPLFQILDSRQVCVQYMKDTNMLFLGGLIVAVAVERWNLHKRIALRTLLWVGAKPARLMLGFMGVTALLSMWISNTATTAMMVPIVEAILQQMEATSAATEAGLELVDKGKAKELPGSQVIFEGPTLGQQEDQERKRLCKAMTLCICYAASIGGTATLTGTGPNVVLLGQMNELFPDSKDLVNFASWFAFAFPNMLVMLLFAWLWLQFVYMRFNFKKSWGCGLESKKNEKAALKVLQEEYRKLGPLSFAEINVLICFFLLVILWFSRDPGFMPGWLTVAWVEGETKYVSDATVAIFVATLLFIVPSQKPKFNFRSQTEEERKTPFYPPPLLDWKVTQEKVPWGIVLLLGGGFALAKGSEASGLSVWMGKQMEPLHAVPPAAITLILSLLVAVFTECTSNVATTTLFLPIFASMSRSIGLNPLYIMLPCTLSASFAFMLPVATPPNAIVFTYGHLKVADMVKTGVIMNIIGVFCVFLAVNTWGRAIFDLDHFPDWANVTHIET
HepG2 cells endogenously expressing hSLC13A5 were obtained from the Wistar Institute (Knowles et al., Science 1980, 209, 497-499).
HepG2 cells endogenously express hSLC13A5 transporter which is responsible for the uptake of citrate into these cells. […] The uptake of ^14C-citrate into HepG2 cells is monitored using the Cytostar-T assay. This assay format is based on the imported radioactive citrate brought into proximity with the scintillant contained within the base of the plate by virtue of the biological processes within the cells. The radioactive decay is converted to a light signal based on the integration of the scintillation matrix into the assay plate.
Method: ^14C-Citrate Uptake Assay
Starting from 10 mM stock solutions in 100% DMSO, compounds are diluted in pure DMSO using the appropriate dilution steps. Prior to the uptake assay, 400 μL assay medium+4.8 μL compound solution (or pure DMSO for non-inhibited control wells) are mixed (final DMSO concentration in the assay: 1% (v/v)) ^14C-citrate working solution (volumes required per 96-well):
The HepG2 cells are cultivated in cell culture medium (EMEM+10% fetal calf serum+1×NEAA and 10 mM L-Glutamin) For the assay, the medium of the confluent cultures is discarded and the cells are washed with DPBS w/o Mg^2+ w/o Ca^2+. The cells are detached by the addition of 1.0 mL 2× Trypsin in DPBS w/o Mg^2+ w/o Ca^2+ with 7.5 mM EDTA per 75 cm^2 culture flask for up to 3 minutes at 37° C. and resuspended in 10 mL cell culture medium. Following cell counting, 100,000 cells/well are seeded in a volume of 200 μL into Cytostar-T Scintillating 96-well microplates. After overnight incubation in a humid cell culture incubator at 37° C., 5% CO2, the cell culture medium is carefully aspirated and the cells are incubated with 200 μL prewarmed (37° C.) assay medium (50% DMEM+50% Ham's F-12+15 mM HEPES (pH 7.4) (medium contains 15.5 m M D(+)-glucose) per well for at least 1 h prior to the experiment.
Immediately prior to uptake assay, the assay medium is carefully removed and 100 μL test compound dilution is added to each well (n=3).
Following a 20 min incubation at 37° C. in the cell culture incubator, 20 μL of ^14C-citrate working solution is added to each well (final volume per well: 120 μL; final ^14C-citrate concentration ˜1.8 μM/well)).
After incubation over night at 37° C. in the cell culture incubator, the plates are sealed on the top using a transparent plastic foil and on the bottom using a white plastic foil. Following the sealing, the plate is placed into the TopCount NXT HTS and the signal is recorded.
The IC50 values of the compounds are calculated in IDBS XLfit by sigmoidal dose-response (variable slope).
As a reminder, the IC50 is the concentration needed to halve the response being measured. High values mean a need for much substance, low ones inhibition by little substance. As for `O=C(NCc1ccc(Cl)nc1)C1CCN(S(=O)(=O)c2cc(Cl)cc(Cl)c2)CC1` [(I-3)], 471 nM corresponded to half-maximal inhibition (IC50).
`Cc1cc(C)cc(CNC(=O)C2CCN(S(=O)(=O)c3cc(Cl)cc(Cl)c3)CC2)c1` [(I-4)] displayed a half-inhibitory concentration (IC50) of 94 nM.
To `O=C(NCc1ccccc1Br)C1CCN(S(=O)(=O)c2cc(Cl)cc(Cl)c2)CC1` [(I-6)] belongs 82 nM.
To `O=C(NCc1ccc(Br)cc1)C1CCN(S(=O)(=O)c2cc(Cl)cc(Cl)c2)CC1` [(I-7)] belongs 30 nM; to `Cc1ccc(CNC(=O)C2CCN(S(=O)(=O)c3cc(Cl)cc(Cl)c3)CC2)cc1` [(I-8)], 37 nM.
For the compound `Cc1csc(CNC(=O)C2CCN(S(=O)(=O)c3cc(Cl)cc(Cl)c3)CC2)n1` [(I-14)], the IC50 is 83 nM.
For `O=C(NCc1ccccc1Cl)C1CCN(S(=O)(=O)c2cc(Cl)cc(Cl)c2)CC1` [(I-18)] the value was 60 nM.
As to `Cc1ccccc1CNC(=O)C1CCN(S(=O)(=O)c2cc(Cl)cc(Cl)c2)CC1` [(I-19)], the IC50 turned out to be 72 nM.
For `COc1ccccc1CNC(=O)C1CCN(S(=O)(=O)c2cc(Cl)cc(Cl)c2)CC1` [(I-21)] the value was 65 nM.
To `O=C(NCc1ccc(F)cc1Cl)C1CCN(S(=O)(=O)c2cc(Cl)cc(Cl)c2)CC1` [(I-22)] belongs 84 nM; to `O=C(NCc1cc(F)ccc1F)C1CCN(S(=O)(=O)c2cc(Cl)cc(Cl)c2)CC1` [(I-24)], 83 nM; to `O=C(NCc1ccc(Cl)cc1F)C1CCN(S(=O)(=O)c2cc(Cl)cc(Cl)c2)CC1` [(I-25)], 37 nM.
To `Cc1csc(CNC(=O)C2CCN(S(=O)(=O)c3cc(Br)cc(Br)c3)CC2)n1` [(I-29)] belongs 43 nM.
Compound `O=C(NCc1ccc(Cl)cc1)C1CCN(S(=O)(=O)c2cc(Br)cc(Br)c2)CC1` [(I-30)] yielded a half-maximal inhibitory concentration (IC50) of 14 nM.
For `N#Cc1ccc(CNC(=O)C2CCN(S(=O)(=O)c3cc(Br)cc(Br)c3)CC2)cc1` [(I-32)] the value was 23 nM; for `COc1ccccc1CNC(=O)C1CCN(S(=O)(=O)c2cc(Br)cc(Br)c2)CC1` [(I-34)], 27 nM.
For `O=C(NCc1ccccc1F)C1CCN(S(=O)(=O)c2cc(Br)cc(Br)c2)CC1` [(I-38)] the value was 14 nM; for `O=C(NCc1ccc(Br)cc1)C1CCN(S(=O)(=O)c2cc(Br)cc(Br)c2)CC1` [(I-39)], 14 nM.
`Cc1cc(C)cc(S(=O)(=O)N2CCC(C(=O)NCc3ccc(F)cc3)CC2)c1` [(I-42)] gave an IC50 of 35 nM.
For `Cc1cc(C)cc(S(=O)(=O)N2CCC(C(=O)NCc3ccc(C#N)cc3)CC2)c1` [(I-43)] the value was 46 nM.
For `Cc1cc(C)cc(S(=O)(=O)N2CCC(C(=O)NCc3ccc(Cl)cc3)CC2)c1` [(I-45)] the value was 25 nM; for `Cc1cc(C)cc(S(=O)(=O)N2CCC(C(=O)NCc3ccccc3F)CC2)c1` [(I-47)], 34 nM.
For `Cc1cc(C)cc(S(=O)(=O)N2CCC(C(=O)NCc3ccc(Br)cc3)CC2)c1` [(I-48)] the value was 17 nM.
